# Where two headings read alike, the source gives them in different places. Marks after values point to notes of the source that are not given here.
# Tests used:
# [1] = set-up: method as in PMID 32763837; settings: children and adolescents in Germany ref 40; cited from earlier work
# [2] = tested on: androgen receptor; assay: Androgenic activity, transactivation luciferase assay in MDA-kb2; settings: MDA-kb2, positive control
# Excerpt: Results were expressed as fold induction (FI), i.e. fold increase compared to vehicle control. According to EPA[28], FI of positive control should be above 4 to meet the performance standard.
# [3] = tested on: MCF-7 human breast cancer cells; settings: lilial 100 µM, estrogen 10 nM; unaffected control 1.8 doublings ref 8; cited from earlier work
# [4] = tested on: CHO-K1 cells (hprt gene); assay: CHO/HPRT mutation assay; type: cell-based, Chinese hamster; settings: Table 4, With S9; lilial 500 µM, 3MC 2 µg/ml
# Method: The test with metabolic activation was performed as described in the OECD protocol, the ASTM standard[23] and other protocols[30],[31] and publications. For the test, cryopreserved CHO-K1 cells after the mutant cleansing were used. Mutant cleansing was performed according to[30], i.e. cells were cultivated three days in HAT medium, one day in HT medium and then frozen.
# One passage after the thawing, 1 × 10^6 cells were seeded in 60 mm cultivation plates as described in[32]. […] The final concentration of the solvent, DMSO, was 1%. […] EMS at final concentration 2 mM as recommended in[31] served as a positive control. 3-MC at final concentration […][22] served as a positive control for metabolic activation. 1% DMSO was used as a VC. Sole cultivation medium served as a negative control (NC). After 4 h, the medium with tested substances was removed, plates were washed with PBS and fresh medium with 10% FBS was added.
# During the expression period (1 week), the cells on all 60 mm plates were passaged once. On day 8, cells were trypsinized, resuspended, counted and 2 × 10^5 cells of each plate were seeded on 60 mm plates in triplicates in the presence of a selective agents, 6-TG (30 µM) as described in[32]. […] 300 cells without the selective agent were seeded in a parallel to evaluate plating efficiency (PE). On day 15, the plates were washed with PBS, cells were fixed with ice cold methanol for 10 min and stained with 0.05% crystal violet in water for 30 min[33]. After washing with water, formed colonies were counted using Schuett Count (Schuett-biotec, Göttingen, Germany). Calculations were done as described in[29]. PE was calculated according to a general Eq. 1. Particular PE at selective conditions was calculated according to Eq. 2. Particular PE at non-selective conditions was calculated according to Eq. 3. Mutation frequency (MF) was calculated according to Eq. 4.1 PE=numberofcoloniesformed/numberofcellsplated 2 PEselective=numberofmutantcoloniesNMC/200,000 3 PEnon-selective=numberofcoloniesformed/300 4 MF=PEselectiveconditions/PEnon-selectiveconditions
# [5] = tested on: CHO-K1 cells (hprt gene); assay: CHO/HPRT mutation assay; type: cell-based, Chinese hamster; settings: 3MC 2 µg/ml
# [6] = tested on: rats; settings: rats ref 41; cited from earlier work
# [7] = tested on: HeLa cells; assay: γH2AX biomarker-based genotoxicity assay, HeLa; type: cell-based, human; settings: PC 30 μM; for Fold, mean (γH2AX over negative control): above 1.5 indicates genotoxicity
# Method: (§1) Briefly, HeLa and CHO-K1 cells were seeded at a concentration of 1 × 10^5 cells/ml into the 96-well plates. CHO-K1 cells were used for comparison with HPRT test. HeLa cells were recommended by the manufacturer of the kit. After 24 h, cells were rinsed with PBS and cultivation medium (“Cell lines” Section) without ATB, with a reduced content of FBS (5%) was added. 30 µM valinomycin (in DMSO) was used as a positive control Samples were applied in the presence of non-toxic sample concentrations, i.e. 100 µM either with or without S9 mix. […] Cells were photographed using a fluorescence microscope (Olympus IX83); filters: DAPI (500 ms) and Cy3 (500 ms). Bioimage analysis in ImageJ software was performed as described previously.
# [8] = tested on: CHO-K1 cells; type: cell-based, Chinese hamster; settings: lilial 100 µM, PC 30 μM; for Fold, mean (γH2AX over negative control): above 1.5 indicates genotoxicity
# Method: as §1
# [9] = tested on: RPTEC/TERT1 cells; assay: Nephrotoxicity, RT-qPCR of kidney damage biomarkers; type: cell-based, human; settings: 100 µM, 48 h, normalized to GAPDH and ACTB
# Method: RPTEC/TERT1 cells were seeded at a concentration of 2 × 10^5 cells/ml in ProxUp2 medium into 60 mm Petri dishes. After 24 h, the cells were washed with PBS and […] metabolites (100 μM) were applied in fresh ProxUp2 medium. The cells were incubated with samples for 48 h, after which the cells were washed with PBS and dishes were frozen in - 160 °C. The RNA was isolated using RNeasy Plus Mini Kit (Qiagen, Hilden, Germany). The RNA concentration and purity was determined with NanoDrop One (ThermoFisher Scientific) spectrophotometr. The cDNA synthesis was performed from 0.1 μg of total RNA with an iScript Reverse Transcription Supermix (Bio-Rad, Hercules, California, USA). Quantitative real-time PCR (qPCR) was performed using the qPCR Bio-Rad C100 Touch System (Bio-Rad) with a 96-well block. The reaction mixture consisted of 1 μl of specific 20 × PrimePCR Assay (Bio-Rad), 10 μl of 2 × SsoAdvance Universal Supermix (Bio-Rad), 2 μl of cDNA sample, 7 μl of nuclease-free water. The final reaction volume was 20 μl. […] Cycling parameters were: initial denaturation at 95 °C for 2 min, followed by 40 cycles of 95 °C for 5 s and 60 °C for 30 s. Fluorescence values were acquired after each extension phase. Samples were analyzed in triplicate, and samples with a standard deviation of duplicates > 0.2 Ct were re-analyzed. A non-template control containing nuclease-free water instead of cDNA as well as non-RT control containing purified RNA without reverse transcription was used. The real-time PCR study followed the MIQE guidelines. Relative transcript levels of the estimated genes in the cell lines were compared using the software CFX Maestro Software 2.3 (Bio-Rad).
# [10] = Table 4, Without S9, lilial 500 µM
compound,measurement,setting,value
CC(Cc1ccc(C(C)(C)CO)cc1)C(=O)O (stereo not shown) [hydroxy-lysmerylic acid],Geometric mean concentration in urine,[1],< 0.4 µg/L
"C[C@]12CCC(=O)C[C@@H]1CC[C@@H]1[C@@H]2CC[C@]2(C)[C@@H](O)CC[C@@H]12 [DHT, dihydrotestosterone, reference compound]",Concentration from which fold induction (FI) significantly increased,[2],≥ 500 pM
estrogen [reference compound],Cell doublings,[3],5.2 doublings
"Cc1ccc2cc3c(ccc4ccccc43)c3c2c1CC3 [3MC, 3-methylcholanthren]",NMC (number of mutant colonies),[4],17 ± 2
same,PE (%) plating efficiency,[4],55 ± 4%
same,MF (/106) mutation frequency,"[5]; Table 4, With S9, lilial 500 µM",152 ± 14 /106
same,MF (/10^6) mutation frequency,"[5]; Table 4, Without S9",25 ± 31 /10^6
same,NMC (number of mutant colonies),[5]; [10],3 ± 4
same,PE (%) plating efficiency,[5]; [10],66 ± 3%
CC(Cc1ccc(C(C)(C)C)cc1)C(=O)O (stereo not shown) [lysmerylic acid],Geometric mean concentration in urine,[1],< 0.2 µg/L
CC(C)(C)c1ccc(C(=O)O)cc1 [p-tert-butylbenzoic acid],Geometric mean concentration in urine,[1],10.21 µg/L
same,Effects on male reproduction,[6],adverse effects on male reproduction
"CC(C)[C@@H]1NC(=O)[C@H](C)OC(=O)[C@@H](C(C)C)NC(=O)[C@@H](C(C)C)OC(=O)[C@H](C(C)C)NC(=O)[C@H](C)OC(=O)[C@@H](C(C)C)NC(=O)[C@@H](C(C)C)OC(=O)[C@H](C(C)C)NC(=O)[C@H](C)OC(=O)[C@@H](C(C)C)NC(=O)[C@@H](C(C)C)OC1=O [PC, valinomycin]",MoA (mean fluorescence values over area of the nuclei),"[7]; 4h_S9, lilial 100 µM",0.29**
same,"RA (%), mean (relative area of nuclei)","[7]; 4h_S9, lilial 100 µM",97.8%
same,"Fold, mean (γH2AX over negative control)","[7]; 4h_S9, lilial 100 µM",2.94
same,MoA (mean fluorescence values over area of the nuclei),"[7]; 4 h, without S9, lilial 100 µM",0.13*
same,"RA (%), mean (relative area of nuclei)","[7]; 4 h, without S9, lilial 100 µM",95.8%
same,"Fold, mean (γH2AX over negative control)","[7]; 4 h, without S9, lilial 100 µM",2.63
same,MoA (mean fluorescence values over area of the nuclei),"[7]; 24 h, lilial 100 µM",0.55*
same,"RA (%), mean (relative area of nuclei)","[7]; 24 h, lilial 100 µM",101.5%
same,"Fold, mean (γH2AX over negative control)","[7]; 24 h, lilial 100 µM",24.03
same,MoA (mean fluorescence values over area of the nuclei),"[8]; CHO-K1, 4h_S9",0.99
same,"RA (%), mean (relative area of nuclei)","[8]; CHO-K1, 4h_S9",90.8%
same,"Fold, mean (γH2AX over negative control)","[8]; CHO-K1, 4h_S9",1.35
same,MoA (mean fluorescence values over area of the nuclei),"[8]; CHO-K1, 4 h, without S9",1.14
same,"RA (%), mean (relative area of nuclei)","[8]; CHO-K1, 4 h, without S9",75.3%
same,"Fold, mean (γH2AX over negative control)","[8]; CHO-K1, 4 h, without S9",1.45
same,MoA (mean fluorescence values over area of the nuclei),"[8]; CHO-K1, 24 h",5.26
same,"RA (%), mean (relative area of nuclei)","[8]; CHO-K1, 24 h",48.5%
same,"Fold, mean (γH2AX over negative control)","[8]; CHO-K1, 24 h",4.43
CN(C)[C@@H]1C(O)=C(C(N)=O)C(=O)[C@@]2(O)C(O)=C3C(=O)c4c(O)cccc4[C@@](C)(O)[C@H]3C[C@@H]12 [Tetracycline],"Relative fold gene expression, CLU",[9],4.09*
same,"Relative fold gene expression, CST3",[9],1.64*
same,"Relative fold gene expression, HMOX",[9],4.93**
same,"Relative fold gene expression, IL6",[9],1.70
same,"Relative fold gene expression, IL8",[9],1.19
same,"Relative fold gene expression, IPO8",[9],1.41**
same,"Relative fold gene expression, TIMP1",[9],1.31

# Source: article PMC10613275 (Scientific Reports, 2023)
